Measurements taken from PubChem BioAssay (NCI).
“And” between values parts separate entries of the source, which are not always exact repeats. Equal entries are not always repeated.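 How tested: cells in 96-well plates exposed to compound for 48 hours at five concentrations. GI50 marks 50% less growth. At the TGI there is no net growth.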

What was measured:
Assay in all cases: NCI-60 cell line screen, 48 h
TK-10 renal = system: TK-10 renal
SK-MEL-5 melanoma = system: SK-MEL-5 melanoma
SN12C renal = system: SN12C renal
LOX IMVI melanoma = system: LOX IMVI melanoma
HCC-2998 colon = system: HCC-2998 colon
U251 CNS = system: U251 CNS
HCT-15 colon = system: HCT-15 colon
CCRF-CEM leukemia = system: CCRF-CEM leukemia
COLO 205 colon = system: COLO 205 colon
HT29 colon = system: HT29 colon

SMILES | TGI (TK-10 renal) | TGI (SK-MEL-5 melanoma) | TGI (SN12C renal) | TGI (LOX IMVI melanoma) | TGI (HCC-2998 colon) | TGI (U251 CNS) | TGI (HCT-15 colon) | TGI (CCRF-CEM leukemia) | TGI (COLO 205 colon) | TGI (HT29 colon) | GI50 (TK-10 renal) | GI50 (LOX IMVI melanoma) | GI50 (HCT-15 colon) | GI50 (COLO 205 colon)
Cc1cc2ccccc2n1CC(=O)NCC(C)C | > 100 µM | > 100 µM | > 100 µM | > 100 µM | > 100 µM | > 100 µM | > 100 µM | > 100 µM | > 100 µM | > 100 µM |  |  |  | 
O=C(c1ccc2ccccc2c1)C1S(=O)(=O)OCCOS1(=O)=O | > 100 µM | > 100 µM | > 100 µM | > 100 µM | > 100 µM | > 100 µM | > 100 µM | > 100 µM | > 100 µM | > 100 µM |  |  |  | 
C=CCC(CNC(=O)OCc1ccccc1)O[Si](C)(C)C(C)(C)C (centres undefined) | > 100 µM | 31.8 µM | > 100 µM | 47.1 µM | > 100 µM | 79.5 µM | > 100 µM | > 100 µM | 30.8 µM | 59.1 µM |  |  |  | 
CC(=O)O[C@H]1C#C/C=C\C#CC[C@@H]2C(=O)N(C(=O)OC(C)(C)C)[C@@H]12 | > 100 µM | > 100 µM | > 71.6 µM | 45.3 µM | > 67.5 µM | > 78.9 µM | 51.4 µM | 6.77 µM | > 100 µM | > 100 µM |  |  |  | 
Cc1ccc(S(=O)(=O)n2cncc2CO)cc1 | > 100 µM | > 100 µM | > 100 µM | > 100 µM | > 100 µM | > 100 µM | > 100 µM | > 100 µM | > 100 µM | > 100 µM |  |  |  | 
Clc1nc(-[n+]2ccc(-c3ccncc3)cc2)nc(Nc2ccccc2)c1Cl | > 100 µM | > 100 µM | > 100 µM | > 100 µM | > 100 µM | > 100 µM | > 100 µM | 90.2 µM | > 100 µM | > 100 µM |  |  |  | 
CC(NC(=O)/C(=C/c1ccccc1O)NC(=O)c1ccccc1)C(=O)O (centres undefined) | > 100 µM | > 100 µM | 48.1 µM | > 100 µM | 76.2 µM | > 100 µM | 80.4 µM | > 100 µM | > 100 µM | > 100 µM |  |  |  | 
CCc1nnc(-n2c(C)nc3cc(Cl)ccc3c2=O)s1 | > 100 µM | 65.9 µM | > 100 µM | > 100 µM | > 100 µM | > 100 µM | > 100 µM | 56.7 µM | > 100 µM | > 100 µM |  |  |  | 
O=C(N/N=C\c1cccc2ccccc12)Nc1ccc([N+](=O)[O-])cc1 | > 80.9 µM | > 87.2 µM | > 73 µM | > 100 µM | > 70.3 µM | > 100 µM | > 100 µM | > 100 µM | > 60.7 µM | > 100 µM |  |  |  | 
CC(C)(C)N=C1CC(C)(C)c2ccccc2C(=Nc2ccccc2)S1 | > 100 µM | 59.2 µM | > 100 µM | 40.1 µM | > 100 µM | > 100 µM | > 100 µM | > 100 µM | 49.6 µM | > 100 µM |  |  |  | 
C/C(O)=C(\C=N\C(N)=S)C(=O)Nc1ccccc1C | > 100 µM | > 100 µM | > 100 µM | > 100 µM | > 100 µM | > 100 µM | > 100 µM | > 100 µM | > 100 µM | > 100 µM |  |  |  | 
CC(=O)N(CN1C(=O)CCC1C(=O)O)c1ccccc1 (centres undefined) | > 100 µM | > 100 µM | > 100 µM | > 100 µM | > 100 µM | > 100 µM | > 100 µM | > 100 µM | > 100 µM | > 100 µM |  |  |  | 
N#CC1=C(N)C(C#N)(C#N)C(c2ccc(F)cc2)C=C1C1CC1 (centres undefined) | 44 µM | 16.2 µM | 10.3 µM | 14.5 µM | 25.4 µM | 18.2 µM | 22.3 µM | 31.7 µM | 24.9 µM | 22.8 µM |  |  |  | 
Cc1csc2c1C(=O)c1ccsc1C2=O | 35.2 µM | 1.82 µM | 4.83 µM | 3.37 µM | 14.6 µM | 13.6 µM | 3.51 µM | > 100 µM | 24.8 µM | 7.33 µM |  |  |  | 
Nc1ccc2c(c1)C(=O)c1ccccc1-2 | > 100 µM | > 100 µM | > 100 µM | > 100 µM | > 100 µM | > 100 µM | > 100 µM | > 100 µM | > 100 µM | > 100 µM |  |  |  | 
CC1=C(C(=O)OCCc2ccc([N+](=O)[O-])cc2)C(c2ccccc2[N+](=O)[O-])C(C(=O)OC(C)C)=C(C)N1 (centres undefined) | > 100 µM | 5.14 µM | > 100 µM | > 100 µM | > 100 µM | > 100 µM | > 100 µM | 23.2 µM | > 100 µM | > 100 µM |  |  |  | 

SMILES | TGI (TK-10 renal) | TGI (SK-MEL-5 melanoma) | TGI (SN12C renal) | TGI (LOX IMVI melanoma) | TGI (HCC-2998 colon) | TGI (U251 CNS) | TGI (HCT-15 colon) | TGI (CCRF-CEM leukemia) | TGI (COLO 205 colon) | TGI (HT29 colon) | GI50 (TK-10 renal) | GI50 (LOX IMVI melanoma) | GI50 (HCT-15 colon) | GI50 (COLO 205 colon)
COC(=O)[C@H](C)N1C(=O)N[C@@H](C(C)C)C1=O | > 100 µM | > 100 µM | > 100 µM | > 100 µM | > 100 µM | > 100 µM | > 100 µM | > 100 µM | > 100 µM | > 100 µM |  |  |  | 
CC(=O)/C=C/C=C(\C)CC/C=C(\C)CC(C)C | > 100 µM | 35.5 µM | 96.2 µM | 34 µM | 34.7 µM | 87.7 µM | 30.6 µM | 37 µM | 39 µM | > 100 µM |  |  |  | 
O=C(O)/C=C(/CC(=O)O)C(=O)O | 54.6 µM | 44.1 µM | 40.7 µM | 47.1 µM | 90.4 µM | 41.2 µM | 54 µM | 37.2 µM | 38.6 µM | 59.2 µM |  |  |  | 
CCOc1ccc2[nH]c3c(C)c4cc[n+](C)cc4c(C)c3c2c1 | 81.6 µM and > 100 µM | 4.37 µM and 4.31 µM | 1.25 µM and 2.69 µM | 19.4 µM and > 67.1 µM | 10.6 µM and 16.2 µM | 1.08 µM and 1.15 µM | > 100 µM | 23.7 µM and 37.3 µM | 2.62 µM and 4.69 µM | 28.4 µM and 32.7 µM | 9.4 µM and 26.6 µM | 2.99 µM and 11.4 µM | 6.05 µM and > 35.6 µM | 0.791 µM and 1.6 µM
COC(=O)c1sc(=S)sc1SCc1ccccc1CSc1sc(=S)sc1C(=O)OC | > 100 µM | > 100 µM | > 100 µM | > 100 µM | > 100 µM | > 100 µM | > 100 µM | 87.6 µM | > 100 µM | > 100 µM |  |  |  | 
O=C(C1=C(C(=O)c2ccccc2)SC2(S1)C(C(=O)c1ccccc1)=C(C(=O)c1ccccc1)Sc1c2ssc1=O)c1ccccc1 | > 100 µM | > 100 µM | > 100 µM | > 100 µM | > 100 µM | > 100 µM | > 100 µM | > 100 µM | > 100 µM | > 100 µM |  |  |  | 
Cc1nnc2cc(C(=O)O)c3ccccc3n2c1=O | > 10 µM | > 10 µM | > 10 µM | > 10 µM | > 10 µM | > 10 µM | > 10 µM | > 10 µM | > 10 µM | > 10 µM |  |  |  | 
O=C1NC(=S)N/C1=C/c1ccccc1O | > 100 µM | > 100 µM | > 100 µM | > 100 µM | > 100 µM | > 100 µM | > 100 µM | > 100 µM | > 100 µM | > 100 µM |  |  |  | 
O=c1[nH]c(=O)n(C2OC(COP(=O)(O)OP(=O)(O)O)C(O)C2O)cc1F (centres undefined) | > 50 µM | > 50 µM | > 50 µM | 23 µM | > 50 µM | > 25.2 µM | > 50 µM | > 50 µM | > 50 µM | > 50 µM |  |  |  | 
Cc1cc(S(=O)(=O)Nc2nnc3c(C(F)(F)F)cc(Cl)cn23)c(S)cc1Cl | > 100 µM | > 100 µM | > 100 µM | > 100 µM | > 100 µM | > 100 µM | > 100 µM | > 100 µM | > 100 µM | > 100 µM |  |  |  | 
CCOC(=O)c1ccc(C(=O)C(C(C)=O)C(=O)OC(C)(C)C)n1C (centres undefined) | > 100 µM | > 100 µM | > 100 µM | > 100 µM | > 100 µM | > 100 µM | > 100 µM | > 100 µM | > 100 µM | > 100 µM |  |  |  | 
CCOC(=O)c1nc2c3c(ncn2n1)Oc1c(c(-c2ccccc2)nn1-c1ccccc1)C3c1ccc(Cl)cc1 (centres undefined) | > 100 µM | > 100 µM | > 100 µM | > 100 µM | > 100 µM | > 100 µM | > 100 µM | > 100 µM | > 100 µM | > 100 µM |  |  |  | 
O=C(CC(O)(C(F)(F)F)C(F)(F)F)C(CCCl)C(O)(C(F)(F)F)C(F)(F)F (centres undefined) | > 100 µM | 71 µM | 67 µM | > 100 µM | > 100 µM | > 100 µM | > 100 µM | > 100 µM | 26.8 µM | 91.5 µM |  |  |  | 
OCC1OC(n2cnc3cccnc32)CC1O (centres undefined) | > 100 µM | > 100 µM | > 100 µM | > 100 µM | > 100 µM | > 100 µM | > 100 µM | > 100 µM | > 100 µM | > 100 µM |  |  |  | 
C/C(=N\NC(N)=O)C(CN1CCCCC1)C(c1ccccc1)c1c(O)c2ccccc2oc1=O (centres undefined) | > 100 µM | > 100 µM | > 100 µM | > 100 µM | > 100 µM | > 100 µM | > 100 µM | > 100 µM | > 100 µM | > 100 µM |  |  |  | 
